Laboratory results taken from PMC7014271, “Oral Delivery of a Tetrameric Tripeptide Inhibitor of VEGFR1 Suppresses Pathological Choroid Neovascularization” (International Journal of Molecular Sciences, 2020).
Counter-ions that a name gives are not always drawn. Like-named read-outs stand apart in the source and are kept apart here.

Molecular target: T1, VEGF-A/VEGFR1 (recombinant VEGF-A binding to immobilized VEGFR1) (Homo sapiens, UniProt P17948)
T1 construct: purchased R&D Systems
Experiment: Competitive ELISA for VEGF-A/VEGFR-1 interaction
Format: biochemical
Experimental: The competitive ELISA based assay was performed by coating on 96-well plates a recombinant form of VEGFR-1 (R&D Systems, Minneapolis, MN, USA) at 0.5 µg/mL in PBS, 100 µL/well (the same volume was used for all subsequent steps), 16 h at room temperature. The plate was then blocked for 3 h at RT with 1% bovine serum albumin (BSA). Recombinant form of VEGF-A (R&D Systems) at 5 ng/mL in PBS containing 0.1% BSA, 5 mM EDTA, 0.004% Tween 20 (PBET) and 4% DMSO, was added alone or mixed with peptides at a concentration ranging between 0.04 and 100 µM, and incubated for 1 h at 37 °C followed by 1 h at RT. A biotinylated anti VEGF-A polyclonal antibody (R&D Systems) diluted in PBET at 150 ng/mL, was added to the wells and incubated for 1 h at 37 °C followed by 1 h at RT. […] The reaction was blocked by adding 30 µL/well of 4 N H2SO4 and the absorbance measured at 490 nm on a microplate reader (BenchMark, Biorad, Hercules, CA, USA).

[1] = competitive ELISA, VEGFR-1 coated 0.5 µg/mL, VEGF-A 5 ng/mL, peptides 0.04-100 µM, PBET, 4% DMSO, 1 h 37 °C then 1 h RT, absorbance 490 nm, mean of two independent experiments in triplicate, read-out: IC50 of VEGF-A binding to VEGFR1 (concentration at 50% inhibition)

T1 sequence (P17948 27-687 limits assumed, species assumed): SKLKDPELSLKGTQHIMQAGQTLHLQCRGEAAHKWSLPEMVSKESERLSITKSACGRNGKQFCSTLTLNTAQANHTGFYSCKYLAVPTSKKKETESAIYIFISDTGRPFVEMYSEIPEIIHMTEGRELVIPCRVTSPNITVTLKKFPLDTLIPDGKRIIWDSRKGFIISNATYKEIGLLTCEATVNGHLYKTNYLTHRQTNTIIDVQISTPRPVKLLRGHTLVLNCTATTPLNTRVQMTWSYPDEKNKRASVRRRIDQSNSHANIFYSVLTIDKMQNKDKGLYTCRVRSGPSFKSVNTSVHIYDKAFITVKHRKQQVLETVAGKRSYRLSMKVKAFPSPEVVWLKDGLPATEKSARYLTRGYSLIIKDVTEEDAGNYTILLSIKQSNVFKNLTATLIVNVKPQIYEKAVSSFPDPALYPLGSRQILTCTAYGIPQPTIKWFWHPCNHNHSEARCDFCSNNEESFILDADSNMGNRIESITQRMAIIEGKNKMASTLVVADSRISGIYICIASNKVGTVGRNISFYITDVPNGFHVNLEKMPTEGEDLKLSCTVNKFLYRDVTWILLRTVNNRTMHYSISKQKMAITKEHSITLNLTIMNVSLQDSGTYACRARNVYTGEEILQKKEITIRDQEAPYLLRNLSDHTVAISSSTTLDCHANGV

| IC50 [1] | Increase in inhibitory activity (reduction of IC50) upon TFA to acetate exchange (iVR1-Ac vs iVR1-TFA, VEGF-A/VEGFR1 competitive ELISA) | IC50 (acetate counter-ion, VEGF-A/VEGFR1, read-out: IC50 of iVR1 after TFA replaced with acetate (rounded, discussion)) | SMILES |
| --- | --- | --- | --- |
| 1.94 µM | about five |  | N[C@H](CCC(=O)O)C(=O)N[C@@H](CSCc1ccccc1)C(=O)N[C@@H](CC1CCCCC1)C(=O)NCCCC[C@H](NC(=O)[C@H](CC1CCCCC1)NC(=O)[C@H](CSCc1ccccc1)NC(=O)[C@H](N)CCC(=O)O)C(=O)NCCCC[C@H](NC(=O)[C@H](CCCCNC(=O)[C@H](CC1CCCCC1)NC(=O)[C@H](CSCc1ccccc1)NC(=O)[C@H](N)CCC(=O)O)NC(=O)[C@H](CC1CCCCC1)NC(=O)[C@H](CSCc1ccccc1)NC(=O)[C@H](N)CCC(=O)O)C(=O)NCC(=O)O [iVR1-Ac, [D-Glu-L-Cys(Bzl)-L-Cha]4-Lys2-Lys-Gly] |
| 9.35 µM |  |  | N[C@H](CCC(=O)O)C(=O)N[C@@H](CSCc1ccccc1)C(=O)N[C@@H](CC1CCCCC1)C(=O)NCCCC[C@H](NC(=O)[C@H](CC1CCCCC1)NC(=O)[C@H](CSCc1ccccc1)NC(=O)[C@H](N)CCC(=O)O)C(=O)NCCCC[C@H](NC(=O)[C@H](CCCCNC(=O)[C@H](CC1CCCCC1)NC(=O)[C@H](CSCc1ccccc1)NC(=O)[C@H](N)CCC(=O)O)NC(=O)[C@H](CC1CCCCC1)NC(=O)[C@H](CSCc1ccccc1)NC(=O)[C@H](N)CCC(=O)O)C(=O)NCC(=O)O [iVR1-TFA, [D-Glu-L-Cys(Bzl)-L-Cha]4-Lys2-Lys-Gly] |
|  |  | < 2 µM | N[C@H](CCC(=O)O)C(=O)N[C@@H](CSCc1ccccc1)C(=O)N[C@@H](CC1CCCCC1)C(=O)NCCCC[C@H](NC(=O)[C@H](CC1CCCCC1)NC(=O)[C@H](CSCc1ccccc1)NC(=O)[C@H](N)CCC(=O)O)C(=O)NCCCC[C@H](NC(=O)[C@H](CCCCNC(=O)[C@H](CC1CCCCC1)NC(=O)[C@H](CSCc1ccccc1)NC(=O)[C@H](N)CCC(=O)O)NC(=O)[C@H](CC1CCCCC1)NC(=O)[C@H](CSCc1ccccc1)NC(=O)[C@H](N)CCC(=O)O)C(=O)NCC(=O)O [iVR1, [D-Glu-L-Cys(Bzl)-L-Cha]4-Lys2-Lys-Gly] |
